Laboratory results published in ChEMBL document CHEMBL1124228, “Synthesis of (aryloxy)alkylamines. 1. Novel antisecretory agents with H+K+-ATPase inhibitory activity” (J Med Chem, 1988).

Legend:
[1] = target: T1, Potassium-transporting ATPase (Homo sapiens, UniProt P20648); test: (§1) Antisecretory activity evaluated by the inhibition of 14C -AP uptake in isolated rabbit parietal cells stimulated by dibutyryl cyclic adenosine 3', 5' -monophosphate (dcAMP); format: functional, Oryctolagus cuniculus
[2] = test system: Rattus norvegicus; test: Percent inhibition of total acid secretion in pylorus-ligated rats at an id dose of 20 mg/kg; format: functional; conditions: route intraduodenal
[3] = target: T1, Potassium-transporting ATPase; test: Antisecretory activity evaluated by the inhibition of 14C -AP uptake in isolated rabbit parietal cells stimulated by exogenous histamine; format: functional, Oryctolagus cuniculus
[4] = test system: Rattus norvegicus; test: Effective dose required for the inhibition of total acid secretion in pylorus-ligated rats at 40 mg/kg; format: functional
[5] = test system: Rattus norvegicus; test: Percent inhibition of total acid secretion in pylorus-ligated rats at an id dose of 40 mg/kg; format: functional; conditions: route intraduodenal
[6] = target: T2, Potassium-transporting ATPase (Homo sapiens, UniProt P20648+P51164); test: as §1; format: functional, Oryctolagus cuniculus; conditions: target entry is the homologue from another species
[7] = target: T2, Potassium-transporting ATPase; test: Evaluated for the inhibition of H+/K+ ATPase enzyme from fundic mucosa of white rabbits at 100 uM; format: protein-complex assay; conditions: Oryctolagus cuniculus, target entry is the homologue from another species
[8] = test system: Rattus norvegicus; test: Effective dose required for the inhibition of total acid secretion in pylorus-ligated rats at 20 mg/kg; format: functional
[9] = organism: Rattus norvegicus; test: Effective dose required for the inhibition of total acid secretion in pylorus-ligated rats; format: functional
[10] = test system: Rattus norvegicus; test: Percent inhibition of total acid secretion in pylorus-ligated rats at an id dose of 10 mg/kg; format: functional; conditions: route intraduodenal
[11] = target entry is the homologue from another species

T2 sequence (P20648 whole entry): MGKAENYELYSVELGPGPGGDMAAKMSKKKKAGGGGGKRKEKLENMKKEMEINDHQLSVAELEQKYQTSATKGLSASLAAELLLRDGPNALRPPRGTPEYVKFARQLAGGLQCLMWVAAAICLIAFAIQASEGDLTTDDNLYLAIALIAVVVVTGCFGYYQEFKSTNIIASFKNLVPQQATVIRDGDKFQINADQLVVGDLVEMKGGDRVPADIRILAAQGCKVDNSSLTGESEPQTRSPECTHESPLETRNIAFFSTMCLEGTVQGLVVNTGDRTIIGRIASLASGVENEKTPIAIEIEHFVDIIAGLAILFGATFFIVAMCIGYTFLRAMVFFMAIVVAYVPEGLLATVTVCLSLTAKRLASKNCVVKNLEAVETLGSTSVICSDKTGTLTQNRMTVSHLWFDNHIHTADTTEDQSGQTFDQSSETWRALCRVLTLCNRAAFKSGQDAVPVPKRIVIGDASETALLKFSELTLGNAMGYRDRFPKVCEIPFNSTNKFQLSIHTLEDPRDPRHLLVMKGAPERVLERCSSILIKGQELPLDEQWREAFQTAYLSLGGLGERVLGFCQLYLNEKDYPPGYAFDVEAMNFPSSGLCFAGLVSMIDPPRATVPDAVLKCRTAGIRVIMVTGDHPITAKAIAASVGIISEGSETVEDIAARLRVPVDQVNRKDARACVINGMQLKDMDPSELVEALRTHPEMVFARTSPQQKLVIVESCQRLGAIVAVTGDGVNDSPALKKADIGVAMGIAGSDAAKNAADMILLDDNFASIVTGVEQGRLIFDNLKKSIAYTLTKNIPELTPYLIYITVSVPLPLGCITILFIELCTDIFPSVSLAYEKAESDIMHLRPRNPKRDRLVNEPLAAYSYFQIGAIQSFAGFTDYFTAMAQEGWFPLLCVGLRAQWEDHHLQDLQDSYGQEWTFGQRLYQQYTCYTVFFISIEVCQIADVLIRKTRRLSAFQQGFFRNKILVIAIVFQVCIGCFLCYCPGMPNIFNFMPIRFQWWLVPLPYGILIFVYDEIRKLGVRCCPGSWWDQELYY
T2 sequence (P51164 whole entry): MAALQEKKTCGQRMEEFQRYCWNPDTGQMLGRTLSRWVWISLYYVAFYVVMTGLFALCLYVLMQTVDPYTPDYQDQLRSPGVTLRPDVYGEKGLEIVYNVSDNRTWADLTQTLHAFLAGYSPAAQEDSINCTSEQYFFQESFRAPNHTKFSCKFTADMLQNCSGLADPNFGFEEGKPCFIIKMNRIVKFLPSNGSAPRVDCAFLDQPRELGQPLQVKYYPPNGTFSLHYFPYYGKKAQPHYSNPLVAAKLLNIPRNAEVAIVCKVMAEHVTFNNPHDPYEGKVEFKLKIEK

Row | SMILES | IC50 [1, 11] | IC50 [3, 11] | inhibition in vivo at 20 mg/kg [2] | further results
1 | CCCCN(CCCC)CCCOc1ccc(-c2csc(-c3cc(OC)cc(OC)c3)n2)cc1 | 540 nM | 260 nM | 17% | –
2 | CCCN(CCC)CCCOc1ccc(-c2nc3ccccc3s2)cc1 | 140 nM | 210 nM | – | inhibition in vivo at 40 mg/kg [4]: 42%
3 | CCCCN(CCCC)CCCOc1ccc(-c2csc(-c3cccnc3)n2)cc1 | 880 nM | 1650 nM | 19% | –
4 | CCCCN(CCCC)CCCOc1ccc(/C=C/c2nc3cc(C)ccc3s2)cc1 | 530 nM | 290 nM | 14% | –
5 | c1cncc(-c2nc(-c3ccc(OCCCn4ccnc4)cc3)cs2)c1 | 3000 nM | 3300 nM | 53% | –
6 | CCCCN(CCCC)CCCOc1ccc(-c2nc3ccccc3s2)cc1 | 2600 nM | 250 nM | – | –
7 | CCCCN(CCCC)CCCOc1ccc(-c2csc(-c3ccc(C)cc3)n2)cc1 | 3000 nM | 1500 nM | 41% | –
8 | CCCCN(CCCC)CCCOc1ccc(-c2csc(-c3ccc(OC)cc3)n2)cc1 | 230 nM | 480 nM | 4% | –
9 | CCCCN(CCCC)CCCOc1ccc(-c2csc(-c3ccc(C(F)(F)F)cc3)n2)cc1 | 2000 nM | 2900 nM | – | inhibition in vivo at 40 mg/kg [5]: 40%
10 | CCCCN(CCCC)CCCOc1ccc(-c2nc(-c3ccccc3)sc2C)cc1 | 230 nM | 270 nM | – | inhibition [7]: 65%; inhibition in vivo at 20 mg/kg [8]: 36%
11 | CCCCN(CCCC)CCCOc1ccc(-c2csc(-c3ccccc3)n2)cc1.Cl | 420 nM | 450 nM | – | ED50 [8]: 17 mg/kg; inhibition in vivo at 20 mg/kg [8]: 75%
12 | CCCCN(CCCC)CCOc1ccc(-c2csc(-c3ccccc3)n2)cc1 | 350 nM | 310 nM | 41% | –
13 | CCCCN(CCCC)CCCOc1ccc(-c2csc(C)n2)cc1 | 8400 nM | 1500 nM | 8% | –
14 | CCCCN(CCCC)CCCOc1ccc(-c2nc3ccccc3[nH]2)cc1 | 1200 nM | 1800 nM | – | inhibition in vivo at 40 mg/kg [5]: 24%
15 | CCCCN(CCCC)CCCOc1ccc(-c2nc(-c3ccccc3)sc2CC)cc1 | 240 nM | 340 nM | – | –
16 | CCN(CC)CCCOc1ccc(-c2csc(-c3ccccc3)n2)cc1 | 90 nM | 120 nM | – | inhibition in vivo at 40 mg/kg [5]: 82%
17 | FC(F)(F)c1ccc(-c2nc(-c3ccc(OCCCn4ccnc4)cc3)cs2)cc1 | 620 nM | 370 nM | 27% | –
18 | CCCCN(CCCC)CCCOc1ccc(-c2csc(-c3ccc(Cl)cc3)n2)cc1 | 1800 nM | 2100 nM | 40% | –
19 | CCCCN(CCCC)CCCCOc1ccc(-c2csc(-c3ccccc3)n2)cc1 | 120 nM | 130 nM | 56% | –
20 | CNC(=C[N+](=O)[O-])NCCSCc1ccc(CN(C)C)o1 [RANITIDINE] | – | 40 nM | – | ED50 [8]: 9.1 mg/kg
21 | CCCN(CCC)CCCOc1ccc(-c2csc(-c3ccccc3)n2)cc1 | 180 nM | 230 nM | – | inhibition in vivo at 40 mg/kg [5]: 94%
22 | CCCCN(CCCC)CCCCCOc1ccc(-c2csc(-c3ccccc3)n2)cc1 | 860 nM | 490 nM | 54% | –
23 | c1ccc(-c2nc(-c3ccc(OCCCn4ccnn4)cc3)cs2)cc1 | – | 10000 nM | – | inhibition in vivo at 10 mg/kg [10]: 72%
24 | Cl.O.c1ccc(-c2nc(-c3ccc(OCCCn4ccnc4)cc3)cs2)cc1 | 20 nM | 80 nM | – | ED50 [8]: 5.1 mg/kg; inhibition in vivo at 20 mg/kg [8]: 91%
25 | CN/C(=N\CCSCc1nc[nH]c1C)NC#N [CIMETIDINE] | – | – | – | IC50 [1]: > 100000 nM; ED50 [9]: 32 mg/kg; IC50 [3]: 820 nM
26 | COc1ccc2[nH]c([S+]([O-])Cc3ncc(C)c(OC)c3C)nc2c1 (stereo not given) [OMEPRAZOLE] | – | – | – | ED50 [8]: 7.1 mg/kg

Second part, led by results:

Row | IC50 [1, 11] | IC50 [3, 11] | SMILES | inhibition in vivo at 20 mg/kg [2] | further results
27 | 540 nM | 260 nM | CCCCN(CCCC)CCOc1ccc(/C=C/c2nc3ccccc3o2)cc1 | 43% | –
28 | 350 nM | 220 nM | CCCN(CCC)CCCOc1ccc(/C=C/c2nc3ccccc3o2)cc1 | 77% | –
29 | 150 nM | 370 nM | CCN(CC)CCCOc1ccc(/C=C/c2nc3ccccc3s2)cc1 | – | inhibition in vivo at 40 mg/kg [5]: 71%
30 | 260 nM | 160 nM | C(=C\c1nc2ccccc2s1)/c1ccc(OCCCCN2CCCC2)cc1 | 20% | –
31 | 150 nM | 150 nM | CCCCN(CCCC)CCCOc1ccc(/C=C/c2nc3ccccc3o2)cc1 | – | inhibition in vivo at 40 mg/kg [5]: 96%
32 | 460 nM | 260 nM | CCCCN(CCCC)CCCOc1ccc(/C=C/c2nc3ccc(OC)cc3s2)cc1 | 31% | –
33 | – | 390 nM | c1ccc(-c2nc(-c3ccc(OCCCN4CCCC4)cc3)cs2)cc1 | 36% | IC50 [6]: < 10000 nM
34 | 260 nM | 250 nM | CCCCN(CCCC)CCCOc1ccc(/C=C/c2nc3ccccc3s2)cc1 | 40% | –
35 | 50 nM | 110 nM | c1ccc(-c2nc(-c3ccc(OCCCN4CCCCC4)cc3)cs2)cc1 | 46% | –
36 | 1500 nM | 2300 nM | CCCCN(CCCC)CCCOc1ccc(/C=C/c2nc3ccccc3[nH]2)cc1 | 2.8% | –
37 | 50 nM | 80 nM | CCCCN(CCCC)CCCOc1ccc(/C=C/c2nc3ccc(OC)cc3o2)cc1 | – | inhibition in vivo at 40 mg/kg [5]: 64%
38 | 230 nM | 280 nM | C(=C\c1nc2ccccc2o1)/c1ccc(OCCCCCn2ccnc2)cc1 | 45% | –
39 | 2600 nM | 800 nM | CCCCN(CCCC)CCCOc1ccc(/C=C/c2nc3ccccc3n2C)cc1 | 1.6% | –
40 | 340 nM | 260 nM | CCCCN(CCCC)CCCOc1ccc(/C=C/c2nc3cc(C)ccc3o2)cc1 | – | inhibition in vivo at 40 mg/kg [5]: 88%
41 | 340 nM | 130 nM | C(=C\c1nc2ccccc2s1)/c1ccc(OCCCn2ccnc2)cc1 | 22% | –
42 | 240 nM | 170 nM | C(=C\c1nc2ccccc2o1)/c1ccc(OCCCCN2CCCC2)cc1 | – | inhibition in vivo at 40 mg/kg [5]: 24%

Row | IC50 [1, 11] | IC50 [3, 11] | SMILES | inhibition in vivo at 20 mg/kg [2] | further results
43 | 250 nM | 290 nM | C(=C\c1nc2ccccc2o1)/c1ccc(OCCCn2ccnc2)cc1 | – | inhibition in vivo at 20 mg/kg [8]: 26%
44 | 110 nM | 390 nM | CCCN(CCC)CCCCOc1ccc(/C=C/c2nc3ccccc3o2)cc1.Cl | 90% | ED50 [9]: 11.5 mg/kg
45 | 120 nM | 80 nM | CCN(CC)CCCCOc1ccc(/C=C/c2nc3ccccc3o2)cc1 | 31% | –
46 | 260 nM | 200 nM | C(=C\c1nc2ccccc2s1)/c1ccc(OCCCCn2ccnc2)cc1 | – | inhibition in vivo at 40 mg/kg [5]: 17%
47 | 210 nM | 180 nM | C(=C\c1nc2ccccc2s1)/c1ccc(OCCCN2CCCCC2)cc1 | 32% | –
48 | 500 nM | 400 nM | CCCCN(CCCC)CCCOc1ccc(/C=C/c2nc3cc(Cl)ccc3s2)cc1 | 26% | –
49 | 980 nM | 320 nM | CCN(CC)CCCOc1ccc(/C=C/c2nc3ccccc3o2)cc1 | – | inhibition in vivo at 40 mg/kg [5]: 54%
50 | 600 nM | 430 nM | CCCCN(CCCC)CCOc1ccc(/C=C/c2nc3ccccc3s2)cc1 | – | inhibition in vivo at 20 mg/kg [8]: 14%
51 | 310 nM | 820 nM | c1ccc(-c2nc(-c3ccc(OCCCCn4ccnc4)cc3)cs2)cc1 | – | inhibition in vivo at 40 mg/kg [5]: 31%
52 | 140 nM | 210 nM | CCCN(CCC)CCCOc1ccc(/C=C/c2nc3ccccc3s2)cc1 | – | inhibition in vivo at 20 mg/kg [8]: 42%
53 | 330 nM | 270 nM | C(=C\c1nc2ccccc2o1)/c1ccc(OCCCCn2ccnc2)cc1 | 14% | –
54 | 120 nM | 30 nM | CCCN(CCC)CCCCOc1ccc(/C=C/c2nc3ccccc3s2)cc1.Cl.O | – | ED50 [9]: 13.6 mg/kg; inhibition in vivo at 40 mg/kg [5]: 93%
55 | 350 nM | 180 nM | CCN(CC)CCCCOc1ccc(/C=C/c2nc3ccccc3s2)cc1 | 52% | –
56 | – | 180 nM | CCCCN(CCCC)CCCCOc1ccc(/C=C/c2nc3ccccc3o2)cc1 | – | IC50 [6]: < 10000 nM; inhibition in vivo at 40 mg/kg [5]: 14%
57 | 330 nM | 170 nM | C(=C\c1nc2ccccc2o1)/c1ccc(OCCCCN2CCCCC2)cc1 | 42% | –
